Assay [1] relates to E. coli persisters. Kind of assay: E. coli persister assay (survival by c.f.u. per ml). The assay is classed as cell-based, Escherichia coli (K12 EMG2). To be noted: for killing of E. coli persisters by antibiotic without metabolite: antibiotic alone, no carbon source; for killing of E. coli persisters by antibiotic in the presence of mannitol: antibiotic plus 10 mM mannitol; for potentiation of gentamicin against E. coli persisters by metabolite / reduction of persister viability (killing by gentamicin induced by metabolite): metabolite plus 10 μg/mL gentamicin; for potentiation of gentamicin against E. coli persisters by metabolite / reduction of persister viability (killing by gentamicin induced by metabolite) / potentiation of gentamicin against ΔndhΔnuoI strain persisters: 2 h; for reduction of persister viability (killing by gentamicin induced by metabolite): M9 minimal media; for potentiation of gentamicin against ΔndhΔnuoI strain persisters: ΔndhΔnuoI E. coli, gentamicin plus metabolite. The protocol: (§1) For E. coli (K12 EMG2 strain) persister assays, as described herein, samples were grown to stationary phase in Luria-bertani (LB) broth. Cultures were then treated for 4 hours with 5 μg/mL ofloxacin. […] Samples were then washed with 10 mL 1× filtered PBS and re-suspended in M9 minimal media. Metabolites (Glucose, mannitol, fructose, and pyruvate) and aminoglycoside antibiotics (10 μg/mL gentamicin, 50 μg/mL streptomycin, and 30 μg/mL kanamycin) were added, and samples were incubated at 37° C., 300 RPM, and 80% humidity. Resuspension of samples in defined minimal media allowed precise and specific testing of the effect of different metabolites on persister viability, without the possible confounding factors that a more complex media would present. For S. aureus persister (ATCC 25923 strain) experiments, cells were grown at 37° C. and 300 RPM in LB broth to an OD600 of 0.3. Cells were then diluted 1:1000 in 25 mL LB and grown for 16 hours at 37° C. and 300 RPM in 250 mL flasks. Cultures were treated with carbon source and antibiotic. Previous work has shown that, approximately all, stationary phase S. aureus cells are persistent.
At specified time points, 10 μL aliquots of samples were removed, serially diluted, and spot-plated onto LB agar plates to determine colony forming units/mL (CFU/mL). Only dilutions that yielded between 10-100 colonies were counted. Survival was determined by dividing a replicate's CFU/mL at each time point by the initial CFU/mL for the replicate.
Given the dormancy of bacterial persisters and the known energy requirement for aminoglycoside activity^16, we tested whether metabolic stimulation could potentiate the efficacy of aminoglycosides against bacterial persisters. To test this, we screened metabolites for their ability to potentiate aminoglycosides against E. coli persisters. We selected carbon sources to maximize coverage of glycolysis, the pentose-phosphate pathway (PPP) and the Entner-Doudoroff pathway (EDP) (FIGS. 1A, 1B). Bacterial persisters were isolated (as described under “Methods”), re-suspended in minimal media supplemented with individual metabolites and then treated for 2 hours with the aminoglycoside gentamicin.
The following concentrations of carbon sources were used in this study: 10 mM glucose, 10 mM mannitol, 10 mM fructose, 20 mM glycerol, 30 mM glycolate, 10 mM galactarate, 20 mM pyruvate, 10 mM gluconate, 12 mM arabinose and 12 mM ribose. 10 mM acetate was used as a supplement and 30 mM acetate was used as a potentiating metabolite in control experiments. Carbon sources were purchased from Sigma or Fisher. In E. coli persister assays, samples were re-suspended in M9 minimal media salts plus a carbon source. In all experiments using CCCP, samples were pre-treated for 5 min with the proton ionophore before antibiotic addition.
For E. coli persister assays, samples were grown to stationary phase as described above. Cultures were then treated for 4 h with 5 μg ml^−1 ofloxacin in the above-stated growth conditions. […] Samples were then washed with 10 ml of 1× filtered PBS and re-suspended in M9 minimal media. Carbon sources and antibiotics were added and samples were incubated at 37° C. 300 r.p.m. and 80% humidity. Re-suspension of samples in defined minimal media allowed us to test the effects of different carbon sources on persister viability precisely and specifically, without the possible confounding factors that a more complex medium would present. For S. aureus persister experiments, cells were grown at 37° C. and 300 r.p.m. in LB broth to an OD600 of 0.3. Cells were then diluted 1:1,000 in 25 ml LB and grown for 16 h at 37° C. and 300 r.p.m. in 250 ml flasks before treatment with a carbon source and antibiotic. Previous work has shown that almost all stationary-phase S. aureus cells are persistent^25.
At specified time points, 10-μl aliquots of samples were removed, serially diluted and spot-plated onto LB agar plates to determine colony-forming units per ml (c.f.u. ml^−1). […]

In assay [2] the test system is stationary-phase E. coli cells. In kind it is cell-based, Escherichia coli. On the procedure: Given that aminoglycoside uptake is energy-dependent^16, we investigated whether the metabolic stimuli screened here could increase aminoglycoside uptake. We measured uptake by fluorescently labelling gentamicin with Texas red and analyzing cells by fluorescence-activated cell sorting (FACS). Cells were pre-incubated with metabolites for 30 min before a 5-min treatment with gentamicin-Texas red (FIG. 1D and FIG. 14).
Gentamicin-Texas red was made as previously described^27. At 4° C., 1 mg of Texas red (Invitrogen) was dissolved in 50 μl of high-quality anhydrous N,N-dimethylformamide. The dissolved Texas red was added slowly to 2.3 ml of 10 mg ml^−1 gentamicin solution in 100 mM K2CO3 at 4° C.
Uptake of gentamicin-Texas red induced by carbon sources in stationary-phase cells was determined by adding concentrated carbon sources (see section on media and growth conditions for concentrations) to stationary-phase cultures and incubating them for 30 min at 37° C., 300 r.p.m. and 80% humidity. Concentrated gentamicin-Texas red was then added to a final concentration of 10 μg ml^−1 and samples were incubated for 5 min. 100 μl of each sample was then washed with 1 ml of PBS and re-suspended in 1 ml of PBS. […] Samples were analysed on a BD FACS Aria II flow cytometer with the following settings: mCherry voltage, 650 V; FSC threshold, 1,000; recorded events, 100,000; gated-out mCherry events. <30.

Assay [3] has as its system S. aureus persisters. In words: S. aureus persister assay. In kind it is cell-based, Staphylococcus aureus (ATCC 25923). On the procedure:
as §1, with “Previous work has shown that, approximately all, stationary phase S. aureus cells are persistent.” left out
At specified time points, 10-μl aliquots of samples were removed, serially diluted and spot-plated onto LB agar plates to determine colony-forming units per ml (c.f.u. ml^−1). Only dilutions that yielded 10-100 colonies were counted Survival was determined by dividing the c.f.u. ml^−1 of a sample at each time point by the initial c.f.u. ml^−1 for that sample.

In assay [4] the test system is uropathogenic E. coli biofilms. In words: Mouse chronic urinary tract infection assay. In kind it is in vivo, mice (BALB/c). Conditions: i.v. twice daily for 3 days; gentamicin 1 mg/kg, mannitol 1.5 g/kg. On the procedure: Female Charles River Balb/C mice (weighing 22-26 g) received surgical implantation in the urinary tract of 6 mm PESO catheter tubing that had been incubated in cultures of uropathogenic E. coli for 24 hours to form biofilms. Forty-eight hours after surgery, mice received no treatment or twice-daily, intravenous treatment with gentamicin (1 mg/Kg) or mannitol (1.5 g/Kg) and gentamicin (1 mg/Kg) for three days. Seven to eight mice were included in each group. Twenty-four hours after the last treatment, catheter tubing was extracted to determine biofilm viability and kidneys were removed to determine bacterial load.
To determine the clinical relevance of metabolic potentiation of aminoglycosides in vivo, we tested the ability of gentamicin in combination with mannitol to treat chronic, biofilm-associated infection in a mouse model. Catheters colonized with uropathogenic E. coli biofilms were implanted in the urinary tracts of mice (FIG. 3D). Two days after surgery, mice received either no treatment or intravenous treatment with gentamicin or gentamicin and mannitol for 3 days, after which the catheters were removed and biofilm viability was determined. Gentamicin alone had no effect, whereas gentamicin in combination with mannitol reduced the viability of the catheter biofilms by nearly 1.5 orders of magnitude (FIG. 3D). […]

Consider ten molecules from US10660911B2, “Proton-motive force stimulation to potentiate aminoglycoside antibiotics against persistent bacteria” (TRUSTEES OF BOSTON UNIVERSITY, priority 2011, dated 2020).

Entries after “also recorded” stand apart in the source; their conditions may differ.

As to `N#CC(C#N)=NNc1cccc(Cl)c1` [CCCP, carbonyl cyanide m-chlorophenyl hydrazone], the “effect of CCCP on metabolite potentiation of gentamicin” value in assay [1] (20 μM CCCP pre-incubation, 10 μg/mL gentamicin plus carbon sources) was “abolish aminoglycoside potentiation by all of the carbon sources; also recorded: abolishes metabolite-enabled potentiation”. Also, the “effect of CCCP on metabolite-induced gentamicin-Texas red uptake” value in assay [2] (20 μM CCCP, 10 μg/mL Gent-TR, 30 min on carbon source) is given as “suppressed the metabolite-induced uptake of aminoglycoside”.
As to `CC1(C)S[C@@H]2[C@H](NC(=O)[C@H](N)c3ccccc3)C(=O)N2[C@H]1C(=O)O` [ampicillin], in assay [1], the “killing of E. coli persisters by antibiotic without metabolite” value (from here on “killing … by antibiotic without metabolite”) was “none of the bactericidal antibiotics used in this study (ofloxacin, ampicillin, and gentamicin) caused killing of cells; also recorded: neither the β-lactam ampicillin nor the quinolone ofloxacin showed appreciable killing”; the “killing of E. coli persisters by antibiotic in the presence of mannitol” value is listed as “neither the β-lactam ampicillin nor the quinolone ofloxacin showed appreciable killing”.
Consider `O=C[C@@H](O)[C@H](O)[C@H](O)CO` [arabinose], for which the “potentiation of gentamicin against E. coli persisters by metabolite” value in assay [1] is on record as “low potentiation”.
`O=C(CO)[C@@H](O)[C@H](O)[C@H](O)CO` [fructose]: in assay [1], the “reduction of persister viability (killing by gentamicin induced by metabolite)” value is on record as “three orders of magnitude” and the “potentiation of gentamicin against ΔndhΔnuoI strain persisters” value is listed as “not potentiated”. The “PMF dependence of fructose potentiation in S. aureus” value in assay [3] (gentamicin and fructose, with or without CCCP, 4 h) is reported as “requires PMF generation; also recorded: PMF-dependent killing”.
As for `O=C(O)[C@H](O)[C@@H](O)[C@H](O)[C@H](O)CO` [gluconate], the “potentiation of gentamicin against E. coli persisters by metabolite” value in assay [1] is recorded as “low potentiation”.
Consider `O=C(O)CO` [glycolate], for which the “uptake of Texas Red probe” value in assay [2] (30 mM glycolate, stationary phase E. coli) is “affects the uptake of Texas Red probe”.
Consider `OC[C@@H](O)[C@@H](O)[C@H](O)[C@H](O)CO` [mannitol], for which, in assay [1], the “reduction of persister viability (killing by gentamicin induced by metabolite)” value is “three orders of magnitude” and the “potentiation of gentamicin against ΔndhΔnuoI strain persisters” value is reported as “not potentiated”. Further, the “potentiation of gentamicin against S. aureus persisters by metabolite” value in assay [3] is on record as “little potentiation”.
For `O=C[C@H](O)[C@H](O)[C@H](O)CO` [ribose], in assay [1], the “potentiation of gentamicin against E. coli persisters by metabolite” value was “low potentiation”.
`[H]/N=C(/N)N[C@H]1[C@H](O)[C@@H](O)[C@H](O[C@@H]2O[C@@H](C)[C@](O)(C=O)[C@H]2O[C@@H]2O[C@@H](CO)[C@H](O)[C@@H](O)[C@@H]2NC)[C@@H](N/C(N)=N\[H])[C@@H]1O` [streptomycin]: the “killing … by antibiotic without metabolite” value in assay [1] was “no appreciable killing”. Further, the “aminoglycoside activity against E. coli persisters with upper-glycolytic metabolites” value in assay [1] (plus glucose, mannitol or fructose, 30 μg/mL kanamycin, 50 μg/mL streptomycin) is on record as “greatly enabled”.
With gentamicin, in assay [1], the “killing … by antibiotic without metabolite” value is “none of the bactericidal antibiotics used in this study (ofloxacin, ampicillin, and gentamicin) caused killing of cells; also recorded: No killing”; the “killing of E. coli persisters by antibiotic in the presence of mannitol” value is “rapidly eliminated”. In addition, the “reduction of viability of catheter biofilms” value in assay [4] was “no effect”.
